These results are taken from patent US4278675A, “Bronchodilating process” (Bristol-Myers Company, priority 1979, dated 1981).

Data set [1] relates to Tracheal chains of guinea pig. As to the kind of experiment: In vitro bronchodilator activity, tracheal chains of guinea pig (Magnus method). The note with it: Cavia porcellus, relative to 0.1 mcg./ml. isoproterenol, read-out: EC50 (concentration producing a relaxation which is 50% of the maximum response to 0.1 mcg./ml. of isoproterenol). In kind it is cell-based. The method, then: Tracheal chains of guinea pig were prepared by the method of A. Akcasu, Arch. Int. Pharmcodyn. […] The response to each test compound was recorded by the Magnus method and expressed as a percentage of the maximum response obtained with 0.1 mcg./ml. of isoproterenol prior to each experiment.

Data set [2] concerns intratracheal pressure (ITP) in the guinea pig. The data set is described as follows: In vivo bronchodilator activity: decrease in intratracheal pressure (ITP) in anesthetized guinea pig. The note with it: Cavia porcellus, intravenous, read-out: ITP ED50 (dose resulting in a 50% decrease in intratracheal pressure). The method, then:
(§1) The trachea of anesthetized guinea pig was cannulated and the ITP recorded on a polygraph under artificial ventilation. Arterial blood pressure (ABP; reflecting hypotensive activity) was also measured during the experiment. Either intravenous or intraduodenal routes of administration are used. […] The ratio of hypotensive ED20 /bronchodilating ED50 reflects an assessment of the separation of desirable bronchodilator activity from undesirable cardiovascular (hypotensive) effect in the compounds. The larger the ABP/ITP ratio, the greater separation of bronchodilator activity and hypotensive side effect.

The subject of data set [3] is Arterial blood pressure (ABP). The data set is described as follows: In vivo hypotensive activity: arterial blood pressure (ABP) in anesthetized guinea pig. As to conditions: intravenous; for ABP ED20 (dose which reduces arterial blood pressure by 20%): anesthetized guinea pig, hypotensive activity; for Ratio ABP/ITP (hypotensive ED20/bronchodilating ED50): guinea pig, larger ratio = greater separation of bronchodilator activity and hypotensive side effect. As to the method:
as §1

For data set [4] the following is noted: prior art (U.S. Pat. No. 3,930,005), cited from earlier work.

Values after ≈ are worked out from the molar mass of the structure shown. Read-outs that look alike come from different tables or passages of the source.

Broadly, the ED50 is the dose at which the effect has come halfway, by size or by number of responders. In the case of `CCCOc1nc(N)c2ncn(Cc3ccccc3)c2n1` [9-Benzyl-2-n-propoxy-9H-adenine], the EC50 in data set [1] worked out at 0.34 µg/mL (≈ 1.2 µM). For the same compound, the ED50 in data set [2] was determined as 0.83 mg/kg. For the same compound, in data set [3], the “ABP ED20 (dose which reduces arterial blood pressure by 20%)” value stood at 1.7 mg/kg and the “Ratio ABP/ITP (hypotensive ED20/bronchodilating ED50)” value is given as 2.0.

Consider `Nc1ncnc2c1ncn2C1CCCCC1` [9-Cyclohexyl-9H-adenine, 9-cyclohexyl-9H-adenine], for which the EC50 in data set [1] was 0.91 µg/mL (≈ 4.19 µM). The anti-inflammatory activity result in data set [4] (listed as 9-cyclohexyl-9H-adenine) is recorded as “no activity or activity of no practical value”. Also, the anti-inflammatory activity entry in data set [4] (listed as drawing 2) is “relatively inactive”. Also, in data set [2], the ED50 was found to be 0.24 mg/kg. Also, in data set [3], the “ABP ED20 (dose which reduces arterial blood pressure by 20%)” value was more than 3 mg/kg and the “Ratio ABP/ITP (hypotensive ED20/bronchodilating ED50)” value is more than 1.2.

Regarding `Cn1c(=O)c2[nH]cnc2n(C)c1=O` [Aminophylline, reference compound], in data set [3], the “ABP ED20 (dose which reduces arterial blood pressure by 20%)” value worked out at 1.4 mg/kg.
